Test results from patent US20250074943A1, “DLL3 BINDING PEPTIDES AND USES THEREOF” (AMGEN INC., priority 2021, published 2025).
Where two headings read alike, the source gives them in different places. Numbered stars: 1 amine (or outer) side, 2 acyl side, 3 side chain; on linkers, the order of the positions; unused ones are H or OH. Bridge positions count the residues as written; N and C are the ends. Ends that are not written are not given here. I, II: the chains in the order shown. X8 = NC(=O)[C@H](CCCCNC(=O)CCOCCOCCOCCOCCNC(=O)CCOCCOCCOCCN(CCOCCOCCOCCC(=O)NCCOCCOCCOCCOCCC(=O)NCCCC[C@H](NC(=O)CCC(=O)NCCCOCCOCCOCCCN[*:2])C(N)=O)C(=O)CNC(=O)CCOCCOCCOCCOCCNC(=O)CCC(=O)N1Cc2ccccc2C#Cc2ccccc21)NC(=O)CCC(=O)NCCCOCCOCCOCCCN[*:1]; X15 = NC(=O)[C@H](CCCCNC(=O)CCOCCOCCOCCN(CCOCCOCCOCCC(=O)NCCCC[C@H](NC(=O)CCC(=O)NCCCOCCOCCOCCCN[*:2])C(N)=O)C(=O)CNC(=O)CCOCCOCCOCCOCCNC(=O)CCC(=O)N1Cc2ccccc2C#Cc2ccccc21)NC(=O)CCC(=O)NCCCOCCOCCOCCCN[*:1]

Legend:
[1] = target: T1, native huDLL3 on the surface of cells (CHO cells) (Homo sapiens, UniProt Q9NYJ7); test: Flow cytometry competition with AF647-labelled peptide; type: cell-based; conditions: for efficiency in competing the binding of the AF647-labelled PepSP1146: compared with monomer PepSP1146
T1 construct: expressed in transfected cells; host or cells: CHO (CHO-huDLL3)
T1 sequence (Q9NYJ7 27-618): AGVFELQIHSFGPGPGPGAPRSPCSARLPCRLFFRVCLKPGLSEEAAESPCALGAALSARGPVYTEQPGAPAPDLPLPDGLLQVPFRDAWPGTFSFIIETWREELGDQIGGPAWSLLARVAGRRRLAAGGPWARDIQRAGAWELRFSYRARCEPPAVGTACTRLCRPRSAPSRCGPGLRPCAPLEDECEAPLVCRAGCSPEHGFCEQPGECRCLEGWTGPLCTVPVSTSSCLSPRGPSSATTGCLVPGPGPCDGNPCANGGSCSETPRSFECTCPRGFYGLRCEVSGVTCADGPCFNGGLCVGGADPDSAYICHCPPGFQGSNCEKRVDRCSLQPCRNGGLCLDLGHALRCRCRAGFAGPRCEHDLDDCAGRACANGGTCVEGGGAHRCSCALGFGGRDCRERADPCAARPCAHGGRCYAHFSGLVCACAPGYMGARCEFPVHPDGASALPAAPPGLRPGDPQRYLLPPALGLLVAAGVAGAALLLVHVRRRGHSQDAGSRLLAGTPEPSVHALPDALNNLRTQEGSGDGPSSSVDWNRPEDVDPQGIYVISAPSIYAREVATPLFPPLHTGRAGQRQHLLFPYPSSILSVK
Method: HEK293-huDLL3, CHO-huDLL3 and the corresponding parental cell lines were detached with EDTA 2.5 mM and re-suspended at 1.8×10^6 cells/ml in FACS buffer (1×PBS, 2% FBS), distributed at 500 μl per testing tube and pelleted 5 min at 1300 rpm in a Heraeus Multifuge […] centrifuge.

rhDLL3-Fc = target: T2, rhDLL3-Fc (Homo sapiens, UniProt Q9NYJ7); test: SPR binding / off-rate screening (Biacore T200); conditions: for koff: read-out: koff; for kon: read-out: kon
T2 construct: The recombinant DLL3 ectodomain (rhDLL3-Fc) was biotinylated; Fc
T2 sequence (Q9NYJ7 27-492 limits assumed): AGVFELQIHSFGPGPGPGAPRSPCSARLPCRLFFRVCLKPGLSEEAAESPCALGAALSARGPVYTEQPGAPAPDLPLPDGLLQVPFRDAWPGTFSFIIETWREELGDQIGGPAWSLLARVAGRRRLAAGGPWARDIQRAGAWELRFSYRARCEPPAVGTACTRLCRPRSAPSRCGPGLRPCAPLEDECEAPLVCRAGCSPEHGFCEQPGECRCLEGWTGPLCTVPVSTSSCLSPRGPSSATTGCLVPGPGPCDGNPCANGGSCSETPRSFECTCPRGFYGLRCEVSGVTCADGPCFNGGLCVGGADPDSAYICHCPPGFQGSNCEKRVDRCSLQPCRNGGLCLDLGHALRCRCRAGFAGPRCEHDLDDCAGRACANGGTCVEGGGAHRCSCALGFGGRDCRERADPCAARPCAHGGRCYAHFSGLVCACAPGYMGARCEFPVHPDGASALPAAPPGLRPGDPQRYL
Method: […] The recombinant DLL3 ectodomain (rhDLL3-Fc) was biotinylated using EZ-Link Sulfo-NHS-LC-LC-Biotin Kit according to the manufacturer's protocol (Pierce by Thermo Fisher Scientific). The recombinant protein was incubated with an excess of NHS-LC-LC Biotin ester, in a molar ratio of 1:3 (protein: biotin), at 25° C. for 90 min. The un-reacted biotin ester was removed by subsequent buffer exchange on 0.5 ml Zeba spin desalting columns 7K MWCO (Pierce by Thermo Fisher Scientific).
The off-rate screening of the peptides was done using a Biacore T200 instrument (Cytiva, Sweden). […] Sensorgrams were analyzed by Biacore T200 Evaluation Software 3.0 (Cytiva, Sweden): specific binding was obtained by subtracting unspecific binding to naked biosensors and a zero analyte concentration made of binding assay buffer (double referencing). […]

[2] = target: T3, recombinant DLL3 ectodomain (rhDLL3-Fc) (Homo sapiens, UniProt Q9NYJ7); test: Binding kinetic assay using Bio-layer interferometry (BLI)
T3 construct: The recombinant DLL3 ectodomain (rhDLL3-Fc) was biotinylated; Fc
T3 sequence (Q9NYJ7 27-492 limits assumed): T2 sequence (Q9NYJ7 27-492 limits assumed)

[3] = Table 7, curve fitting of SPR sensorgrams
[4] = Table 8, curve fitting of SPR sensorgrams

Compound: AETVEFWSCVVYGDNWTCSS-CONH2 (AETVEFWSCVVYGDNWTCSS-NH2; disulfide 9-18 (inferred)) [PepSP1172]
- efficiency in competing the binding of the AF647-labelled PepSP1146 [1]: most efficient binder

Compound: CC(C)[C@H](NC(=O)[C@@H](NC(=O)[C@H](CCC(=O)O)NC(=O)[C@H](C)N)[C@@H](C)O)C(=O)N[C@@H](CCC(=O)O)C(=O)N[C@@H](Cc1ccccc1)C(=O)N[C@@H](Cc1c[nH]c2ccccc12)C(=O)NCC(=O)N[C@H]1CSSC[C@@H](C(=O)N[C@@H](Cc2c[nH]c3ccccc23)C(=O)N[C@@H](Cc2c[nH]c3ccccc23)C(=O)NCCCOCCOCCOCCCNC(=O)CCC(=O)N[C@@H](CCCCn2cc(COCCOCCOCCOCCOCCOCCOCCOCCOCCOCCOCCOCCOCCOCc3cn(CCCC[C@H](NC(=O)CCC(=O)NCCCOCCOCCOCCCNC(=O)[C@H](Cc4c[nH]c5ccccc45)NC(=O)[C@H](Cc4c[nH]c5ccccc45)NC(=O)[C@@H]4CSSC[C@H](NC(=O)CNC(=O)[C@H](Cc5c[nH]c6ccccc56)NC(=O)[C@H](Cc5ccccc5)NC(=O)[C@H](CCC(=O)O)NC(=O)[C@@H](NC(=O)[C@@H](NC(=O)[C@H](CCC(=O)O)NC(=O)[C@H](C)N)[C@@H](C)O)C(C)C)C(=O)N[C@@H]([C@@H](C)O)C(=O)NCC(=O)N[C@@H]([C@@H](C)O)C(=O)N[C@@H](Cc5c[nH]c6ccccc56)C(=O)NCC(=O)N[C@@H](CC(N)=O)C(=O)N[C@@H](CCC(=O)O)C(=O)N[C@@H]([C@@H](C)O)C(=O)N4)C(N)=O)nn3)nn2)C(N)=O)NC(=O)[C@H]([C@@H](C)O)NC(=O)[C@H](CCC(=O)O)NC(=O)[C@H](CC(N)=O)NC(=O)CNC(=O)[C@H](Cc2c[nH]c3ccccc23)NC(=O)[C@H]([C@@H](C)O)NC(=O)CNC(=O)[C@H]([C@@H](C)O)NC1=O [PepSP1271]
- Kd (rhDLL3-Fc; [3]): 3 nM
- koff (rhDLL3-Fc; [3]): 0.00028 s⁻¹
- kon (rhDLL3-Fc; [3]): 104000 M⁻¹ s⁻¹
- IC50 [1]: 10 nM
- efficiency in competing the binding of the AF647-labelled PepSP1146 [1]: higher efficiency

Compound: CC(C)[C@H](NC(=O)[C@@H](NC(=O)[C@H](CCC(=O)O)NC(=O)[C@H](C)N)[C@@H](C)O)C(=O)N[C@@H](CCC(=O)O)C(=O)N[C@@H](Cc1ccccc1)C(=O)N[C@@H](Cc1c[nH]c2ccccc12)C(=O)NCC(=O)N[C@H]1CSSC[C@@H](C(=O)N[C@@H](Cc2c[nH]c3ccccc23)C(=O)N[C@@H](Cc2c[nH]c3ccccc23)C(N)=O)NC(=O)[C@H]([C@@H](C)O)NC(=O)[C@H](CCC(=O)O)NC(=O)[C@H](CC(N)=O)NC(=O)CNC(=O)[C@H](Cc2c[nH]c3ccccc23)NC(=O)[C@H]([C@@H](C)O)NC(=O)CNC(=O)[C@H]([C@@H](C)O)NC1=O [PepSP1146]
- binding mode to DLL3 ([2]; peptides at 20, 4 and 0.8 μM, fit to 1:1 Langmuir binding model): dose-response saturable binding
- affinity ([2]; wider dose-response 10×KD to 0.1×KD): double-digit nM range
- IC50 [1]: 76 nM

Compound: I: Ac-AETVEFWWCNGNSENWTCTWGG / II: Ac-AETVEFWWCNGNSENWTCTWGG (disulfide I:9-I:18, II:9-II:18; linker I:C-II:C via X8) [PepSP1488]
- koff (rhDLL3-Fc; [4]): 0.00031 s⁻¹
- kon (rhDLL3-Fc; [4]): 120000 M⁻¹ s⁻¹

Compound: [Ac-AETVEFWWCNGNSENWTCTW-GG-Ttds-K(Ttds-Ttds-PEG3)]2-PEG4-DBCO- [PepSP1583]
- binding to rhDLL3-Fc, complex half-life (rhDLL3-Fc; single point SPR): tight rhDLL3-Fc binders with a stable complex half-life

Compound: I: Ac-AETVEFWWCNGNSENWTCTWGG / II: Ac-AETVEFWWCNGNSENWTCTWGG (disulfide I:9-I:18, II:9-II:18; linker I:C-II:C via X15) [PepSP1487]
- koff (rhDLL3-Fc; [4]): 0.00042 s⁻¹
- kon (rhDLL3-Fc; [4]): 76000 M⁻¹ s⁻¹
